Like-named read-outs stand apart in the source and are kept apart here.
How the values were obtained:
T84 cells [1] = assay: HPLC adenylate and energy metabolite analyses of treated T84 cells; type: cell-based
T84 cells [2] = assay: calcium switch assay / transepithelial resistance of T84 monolayers; type: cell-based
Procedure: This model utilizes transient divalent cation chelation to disrupt epithelial tight junctions in fully confluent cells.
Briefly, polarized, high-resistant (>1,500 Ω·cm2) T84 monolayers on 0.33 cm^2 (non-metabolomic) or 5 cm^2 (metabolomics) transwell inserts (Costar, 0.4 μm) were equilibrated for 1 h in HBSS in the case of non-metabolomic analyses and approx. 20 h in the case of metabolomic analyses. All experiments were performed at 37° C. and transepithelial resistance monitored using a voltohmeter (World Precision Instruments EVOM). Extracellular Ca^2+ was chelated via washing and incubation with Ca^2+-free HBSS supplemented with 2 mM EDTA for 5 min, after which the samples were washed into HBSS with normal calcium (1.8 mM).
To our surprise, this analysis identified an inverse correlation between Hpx and barrier, with Hpx spiking from approx. 1 to 3.5 μM (p<0.004) at the barrier nadir. […] To extend this observation, T84 cells were supplemented with Hpx (range 0.1-1 mM, 20 h) and a calcium switch assay performed.
Allopurinol (Allo) is a structural analog of hypoxanthine commonly used to treat gout. The drug is metabolized into oxipurinol by xanthine oxidase (XO), which in turn inhibits XO and decreases uric acid. Allopurinol was employed as a competitive substrate/inhibitor for hypoxanthine-guanine phosphoribosyl transferase (HGPRT) to assess the contribution of Hpx salvage to the barrier formation process using the calcium switch assay and transepithelial resistance measurements described above.

T84 cells [3] = conditions: 1 mM hypoxanthine, 88 h, p<0.001
Procedure: We also employed a scratch wound assay to assess the influence of Hpx supplementation on cellular restitution. T84 cells were plated at 35,000 cells per well on a 96-well ImageLock tissue culture plate (Essen Bioscience Inc.) and incubated in standard conditions until a confluent cell monolayer formed (˜24 h). Precise and reproducible wounds were made in all wells with a WoundMaker (Essen Bioscience Inc.). […] Initial images were taken immediately after wounding at 10× using the IncuCyte live-cell imaging (Essen Bioscience Inc.), and then every 2 h over the course of 88 h in culture. Relative wound closure (%) was quantified for every image using the relative wound density metric, a measure of cell density in the wound area relative to the cell density outside of the wound area.

DSS colitis = conditions: for body weight lost: no Hpx ~9; for sterility index: from 0; for tissue AEC: from 0.30; for BiP: from 0.41; for sterile inner mucin layer: from ~1; for colon length: no Hpx ~5.75
Procedure: (§1) To validate the role of exogenous purine supply on colonic function, streptomycin-treated mice (S-0 mM HPX-DSS) were supplemented with 1 and 5 mM Hpx (S-1 mM HPX-DSS and S-5 mM HPX-DSS) in their drinking water and submitted to DSS colitis.

[4] = 10 mM Hpx in drinking water
Procedure: as §1

T84 cells [5] = conditions: 1 mM Hpx
Procedure: To examine the impact of Hpx supplementation on epithelial function during physiologically-relevant metabolic stress, T84 cells were exposed to hypoxia (1% O2, 40 h) in the presence and absence of 1 mM Hpx, and barrier and adenylate metabolites monitored.

[6] = test system: colonic adenylate and energy metabolism; conditions: Hpx 1 mM enema 5 and 18 h before sacrifice
Procedure: To assess the influence of purine supplementation on colonic adenylate and energy metabolism, MDP was depleted by treating mice with streptomycin, and reconstituted by administration of Hpx (1 mM) by enema at time points of 5 and 18 h before sacrifice and distal colon tissue metabolite extracts analyzed.

murine microbiota = assay: HPLC analyses of murine fecal extracts after streptomycin treatment; type: in vivo, mice
Source text: Analyses of soluble, extracellular murine fecal metabolite extracts by HPLC identified substantial levels of available purine (˜550 nmol/g), primarily as hypoxanthine (Hpx, ˜350 nmol/g). The production of purines by the microbiota was verified by fecal extract analyses of streptomycin-treated mice, which decreased the available fecal purine more than 80%, lowering available Hpx to <50 nmol/g.

[7] = test system: total colonic purine levels; assay: colon tissue metabolites at baseline in CR mice, streptomycin treatment and K12 colonization; type: in vivo; conditions: no DSS
Source text: (§2) Bacterial supply of purine was depleted in CR mice (CR-CNTL) via streptomycin treatment (S-CR-CNTL), and reconstituted by colonization with streptomycin-resistant K12 (S-CR-K12).

DSS-induced colitis = assay: DSS colitis in CR mice, streptomycin treatment and K12 colonization; conditions: colon tissue
Source text: as §2
Visualization of the colon tissues by hematoxylin and eosin (H&E) staining in the CR mouse groups reveal two key differences between tissue with and without MDP supply. […] These phenotypes correlate with the adenylate energy charge (AEC, (ATP+0.5×ADP)/(ATP+ADP+AMP))—a commonly used index used to indicate cellular energy status that is defined by relative adenine nucleotide levels, providing a more functionally relevant indicator of energy balance than ATP and/or PCr alone.
Given the association between the AEC and cellular function and the metabolic data indicative of MDP promoting flux through ATP, the colon tissue analyses were extended to Ki67 as marker of proliferation.
Due to the importance of ATP supply for ER function, the colon tissue immunofluorescent analyses were extended to BiP as a marker of ER stress and the UPR.
Goblet cells require robust ER function for mucin protein folding and dimerization, prompting analyses of the impact of MDP on colonic mucin production and secretion. To observe mucin production tissue sections were stained with alcian blue. […]

[8] = subconfluent T84 cells, Allo 20 h

For `Nc1ncnc2c1ncn2[C@@H]1O[C@H](COP(=O)(O)OP(=O)(O)O)[C@@H](O)[C@H]1O` [ADP, adenosine diphosphate], which “Hpx increase in T84 IECs” value (T84 cells [1]; 100 μM ADP) is on record?
The value was roughly 15 fold.

For `Oc1ncnc2[nH]ncc12` [Allo, Allopurinol], which “T84 cell barrier formation” value (T84 cells [2]; Allo 1 mM, p<0.001) is on record?
Its value is “significantly attenuated”.

And the “Adenine, IMP, and UA levels” value (T84 cells [1]; [8])?
The value was “undetectable to trace levels”.

What about the TAE (T84 cells [1]; [8]) of the same molecule?
The TAE was “corresponding increase”.

What about the “Xan and Ino levels” value (T84 cells [1]; [8]) of the same molecule?
Its value is “small increases”.

And the PCr level (T84 cells [1]; subconfluent T84 cells, Allo 20 h, from approx. 20)?
Its PCr level is roughly 27 µM.

What about the Hpx level (T84 cells [1]; subconfluent T84 cells, Allo 20 h, from approx. 400) of the same molecule?
Its Hpx level is roughly 250 nM.

And the Ado level (T84 cells [1]; subconfluent T84 cells, Allo 20 h, from trace/undetectable)?
Its Ado level is “approx. 400 nM”.

With `O=c1[nH]cnc2nc[nH]c12` [Hpx, hypoxanthine] as the molecule, how does the “increase of epithelial wound closure rate following scratching” value (T84 cells [3]) read?
Its value is “approx. 1.5 fold”.

And the “barrier throughout the course of the experiment” value (T84 cells [2]; 300 μM and 1 mM Hpx, p<0.03)?
The value was “improved barrier”.

What about the “cellular barrier and barrier reformation (calcium switch)” value (T84 cells [2]; Hpx pre-loading 0.1-1 mM, 20 h) of the same molecule?
The value was “protective of cellular barrier and promoted barrier reformation in a dose-responsive manner”.

What about the body weight lost (DSS colitis; 1 mM Hpx in drinking water) of the same molecule?
Its body weight lost is roughly 3%.

And the sterility index (DSS colitis; 1 mM Hpx)?
The sterility index was 0.56.

And the tissue proliferation (DSS colitis; 1 mM Hpx, from 0.22)?
The tissue proliferation was 0.54 Ki67/DAPI.

What about the “tissue AEC” value (DSS colitis; 1 mM Hpx) of the same molecule?
The value was 0.38.

What about the BiP (DSS colitis; 1 mM Hpx) of the same molecule?
The BiP was 0.23 BiP/DAPI.

And the “sterile inner mucin layer” value (DSS colitis; 1 mM Hpx)?
The value was roughly 9 μm.

And the colon length (DSS colitis; 1 mM Hpx)?
Its colon length is roughly 6.3 cm.

And the body weight lost (DSS colitis; 5 mM Hpx in drinking water)?
The body weight lost was roughly 7%.

What about the tissue proliferation (DSS colitis; 5 mM Hpx, control 0.22) of the same molecule?
The tissue proliferation was 0.19 Ki67/DAPI.

And the sterility index (DSS colitis; 5 mM Hpx)?
Its sterility index is 0.78.

What about the “tissue AEC” value (DSS colitis; 5 mM Hpx) of the same molecule?
Its value is 0.42.

And the BiP (DSS colitis; 5 mM Hpx)?
The BiP was 0.24 BiP/DAPI.

And the “sterile inner mucin layer” value (DSS colitis; 5 mM Hpx)?
Its value is roughly 11 μm.

And the colon length (DSS colitis; 5 mM Hpx)?
The colon length was roughly 6.5 cm.

And the “epithelial cell population and mucin production (H&E)” value (DSS colitis; Hpx supplementation)?
The value was “recovered”.

What about the “goblet cell mucin production, thecal volumes” value (DSS colitis; Hpx supplementation) of the same molecule?
The value was “increased thecal volumes”.

And the urination [4]?
The urination was “excessively urinate”.

And the “total available energy (TAE) under hypoxia” value (T84 cells [5]; hypoxia 1% O2)?
Its value is “significant recovery”.

And the “increase of overall barrier resistance above control conditions” value (T84 cells [5]; hypoxia 1% O2, 40 h)?
Its value is “approx. 1.3 fold”.

And the “colonic AMP” value ([6]; from 58)?
The value was 84 nmol/g.

And the “colonic ADP” value ([6]; from 80)?
The value was 123 nmol/g.

What about the “colonic ATP” value ([6]; from 192) of the same molecule?
The value was 154 nmol/g.

And the total colonic purine ([6]; from 490)?
Its total colonic purine is 560 nmol/g.

What about the “colonic phosphocreatine (PCr)” value ([6]; from 3700) of the same molecule?
Its value is 2000 nmol/g.

And the “increase of intracellular Hpx levels” value (T84 cells [1]; T84 cells, Hpx 0.1-1 mM, 20 h pre-exposure)?
Its value is “up to 100 fold”.

With `Nc1ncnc2c1ncn2[C@@H]1O[C@H](CO)[C@@H](O)[C@H]1O` [adenosine] as the molecule, how does the “Hpx increase in T84 IECs” value (T84 cells [1]; 1 mM adenosine) read?
Its value is “over 150 fold”.

With `[H]/N=C(/N)N[C@H]1[C@H](O)[C@@H](O)[C@H](O[C@@H]2O[C@@H](C)[C@](O)(C=O)[C@H]2O[C@@H]2O[C@@H](CO)[C@H](O)[C@@H](O)[C@@H]2NC)[C@@H](N/C(N)=N\[H])[C@@H]1O` [streptomycin] as the molecule, how does the measurable fecal hypoxanthine (murine microbiota; 1 day after streptomycin treatment) read?
Its measurable fecal hypoxanthine is “nearly complete loss”.

What about the “available fecal Hpx” value (murine microbiota; streptomycin-treated mice) of the same molecule?
Its value is less than 50 nmol/g.

What about the “decrease of available fecal purine” value (murine microbiota; streptomycin-treated mice) of the same molecule?
The value was “more than 80%”.

What about the “colon tissue Xan” value ([7]; CR-CNTL 207) of the same molecule?
Its value is 69 nmol/g.

What about the “total colonic purine levels” value ([7]; CR-CNTL 809) of the same molecule?
Its value is 630 nmol/g.

And the “goblet cell thecal volumes (alcian blue)” value (DSS-induced colitis)?
The value was “broad decline”.

What about the “adenylate energy charge (AEC)” value (DSS-induced colitis; CR-CNTL-DSS 0.51) of the same molecule?
The value was 0.44.
